Data published in PubChem BioAssay (NCI).
Several values for one entry are separate records, joined by “and”; a condition that tells them apart may be missing. Equal entries are not always repeated.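 Exposure lasted 48 hours, with cells grown in 96-well plates and compounds tested at five concentrations. At the GI50, growth is halved. TGI: total growth inhibition.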

What was measured:
Assay in all cases: DTP human tumour cell line panel, 48 h
HCC-2998 colon = system: HCC-2998 colon
HT29 colon = system: HT29 colon
IGROV1 ovarian = system: IGROV1 ovarian
M14 melanoma = system: M14 melanoma
NCI-H226 lung = system: NCI-H226 lung
NCI/ADR-RES ovarian = system: NCI/ADR-RES ovarian
PC-3 prostate = system: PC-3 prostate
RXF 393 renal = system: RXF 393 renal
SK-OV-3 ovarian = system: SK-OV-3 ovarian
UACC-257 melanoma = system: UACC-257 melanoma

Structure (SMILES)	GI50 (HCC-2998 colon)	TGI (HCC-2998 colon)	GI50 (HT29 colon)	TGI (HT29 colon)	GI50 (IGROV1 ovarian)	TGI (IGROV1 ovarian)	GI50 (M14 melanoma)	TGI (M14 melanoma)	GI50 (NCI-H226 lung)	TGI (NCI-H226 lung)	GI50 (NCI/ADR-RES ovarian)	TGI (NCI/ADR-RES ovarian)	GI50 (PC-3 prostate)	TGI (PC-3 prostate)	GI50 (RXF 393 renal)	TGI (RXF 393 renal)	GI50 (SK-OV-3 ovarian)	TGI (SK-OV-3 ovarian)	GI50 (UACC-257 melanoma)	TGI (UACC-257 melanoma)
Cc1[nH]c(C(=O)Nc2ccccc2OC2CCNCC2)c(Cl)c1Cl	1.27 µM	3.48 µM	0.875 µM	1.71 µM	0.856 µM	1.73 µM	0.95 µM	1.9 µM	0.966 µM	1.96 µM	1.27 µM	3.57 µM	1.39 µM	5.23 µM	0.816 µM	1.56 µM	8.46 µM	16.1 µM	1.04 µM	2.12 µM
Cc1cc2nc3ccc(=[N+](C)C)cc-3sc2cc1N	1.2 µM and 2.12 µM	7.36 µM and 12.2 µM and 10.9 µM	2.09 µM and 2.87 µM	5.45 µM and 22.8 µM and 9.44 µM	1.53 µM and 1.81 µM	5.18 µM and 20.2 µM and 5.32 µM	0.368 µM and 0.703 µM	1.38 µM and 9.09 µM and 2.28 µM	2.11 µM and 1.82 µM	9.05 µM and 30.9 µM and 7.69 µM	0.272 µM and 0.265 µM	3.61 µM and 7.98 µM and 1.49 µM	0.121 µM and 0.173 µM	2.65 µM and 7.2 µM and 3.43 µM	1.7 µM and 1.94 µM	6.93 µM and 22.2 µM and 8.17 µM	1.98 µM and 3.01 µM	8.08 µM and 34.8 µM and 10.9 µM	0.501 µM and 1.95 µM	3.78 µM and 5.85 µM and 10.1 µM
O=C(N=Nc1c(O)[nH]c2ccccc12)c1oc2ccccc2c1CN1CCN(c2ccccc2)CC1	6.83 µM	32 µM	4.06 µM	> 50 µM	2.41 µM	11.2 µM	2.07 µM	8.83 µM	6.68 µM	20.5 µM	1.29 µM	4.68 µM	1.59 µM	7.23 µM	1.01 µM	3.17 µM	7.3 µM	15.7 µM	4.03 µM	28.3 µM
C[C@]12CC[C@H]3[C@@H](CCC4=CC(=O)CC[C@@]43C)[C@@H]1CC[C@@H]2C(=O)COS(=O)(=O)c1ccc(Br)cc1	–	8.74 µM	–	30.3 µM	–	3.28 µM	–	23.8 µM	–	39.3 µM	–	> 100 µM	–	23 µM	–	> 50.8 µM	–	38.1 µM	–	31.9 µM
CSCC[C@H](NC(=O)[C@H](CC(C)C)NC(=O)[C@@H](Cc1ccccc1)NC(=O)CNC(=O)[C@@H](NC(=O)[C@H](C)NC(=O)[C@H](Cc1c[nH]c2ccccc12)NC(=O)[C@H](CCC(N)=O)NC(=O)[C@H](N)CC(N)=O)C(C)C)C(N)=O	–	> 12.5 µM	–	> 12.5 µM	–	> 12.5 µM	–	> 12.5 µM	–	> 12.5 µM	–	> 12.5 µM	–	> 12.5 µM	–	> 12.5 µM	–	> 12.5 µM	–	> 12.5 µM
CCCC[n+]1c(/C=C\c2c(OC)cc(OC)cc2OC)ccc2ccccc21	0.946 µM	7.83 µM	0.663 µM	4.09 µM	1.09 µM	6.7 µM	1.18 µM	2.81 µM	1.92 µM	12.6 µM	15.9 µM	> 71.9 µM	0.737 µM	5.71 µM	1.59 µM	5.87 µM	1.98 µM	8.83 µM	0.38 µM	2.79 µM
NC(=S)N/N=C/c1ccc(N)cn1	–	> 10 µM	–	> 10 µM	–	> 10 µM	–	> 7.38 µM	–	> 10 µM	–	> 10 µM	–	> 10 µM	–	> 10 µM	–	> 10 µM	–	> 10 µM
CC[C@@H](C(=O)[C@H](C)[C@H](O)[C@@H](C)[C@H]1O[C@H]([C@@H](CC)C(=O)O)CC[C@H]1C)C1O[C@]2(C=C[C@@H](O)[C@]3(CC[C@@](C)([C@H]4CC[C@](O)(CC)[C@H](C)O4)O3)O2)[C@H](C)C[C@@H]1C (some centres not stated)	0.178 µM	11.9 µM	0.357 µM	30.2 µM	2.07 µM	> 100 µM	1.13 µM	2.89 µM	0.598 µM	5.83 µM	0.562 µM	> 68.2 µM	0.0692 µM	49 µM	0.0621 µM	1.47 µM	4.1 µM	51.1 µM	0.23 µM	6.98 µM
C[N+](C)(CCCCCC[N+](C)(C)CCCN1C(=O)c2cc3ccccc3cc2C1=O)CCCN1C(=O)c2cc3ccccc3cc2C1=O	> 37.5 µM	> 37.5 µM	> 37.5 µM	> 37.5 µM	> 37.5 µM	> 37.5 µM	> 37.5 µM	> 37.5 µM	> 37.5 µM	> 37.5 µM	> 37.5 µM	> 37.5 µM	> 37.5 µM	> 37.5 µM	> 37.5 µM	> 37.5 µM	> 37.5 µM	> 37.5 µM	> 37.5 µM	> 37.5 µM
O=C1C(=O)c2ccccc2C(O)=C1CCCc1ccc(C2CCCC2)cc1	2.99 µM	8.34 µM	5.43 µM	19.5 µM	3.72 µM	18.4 µM	8.86 µM	23.7 µM	3.77 µM	20.5 µM	5.89 µM	30.2 µM	3.3 µM	19.7 µM	1.41 µM	11.6 µM	12.5 µM	56.9 µM	3.91 µM	28.2 µM
c1cc(CSSCc2ccncc2)ccn1	–	58.7 µM	–	> 100 µM	–	> 100 µM	–	> 82.6 µM	–	> 85.5 µM	–	> 85.3 µM	–	> 100 µM	–	> 75.7 µM	–	> 100 µM	–	> 100 µM
COC(C(=O)C(O)C(C)O)C1Cc2cc3cc(OC4CC(OC5CC(O)C(O)C(C)O5)C(O)C(C)O4)c(C)c(O)c3c(O)c2C(=O)C1OC1CC(OC2CC(O)C(OC3CC(C)(O)C(O)C(C)O3)C(C)O2)C(O)C(C)O1 (configuration not stated)	0.0117 µg/mL and 0.000297 µg/mL	–	0.00284 µg/mL	2.03 µg/mL	0.0112 µg/mL and 0.00231 µg/mL	–	0.047 µg/mL and 0.0293 µg/mL	–	0.0112 µg/mL and 0.000196 µg/mL	–	3.87 µg/mL and 0.0809 µg/mL	–	0.0194 µg/mL and 0.0396 µg/mL	–	0.0112 µg/mL and 0.000246 µg/mL	–	0.0163 µg/mL and 0.0045 µg/mL	–	0.0122 µg/mL and 0.00115 µg/mL	0.0598 µg/mL and 0.027 µg/mL
O=C1C=CC(=Nc2ccccc2)c2ccccc21	–	23.1 µM	–	34.3 µM	–	23.2 µM	–	18.6 µM	–	28.8 µM	–	95.4 µM	–	22.6 µM	–	23.2 µM	–	80.5 µM	–	8.39 µM
CO[C@]12C=C/C(=C(/C(=O)OCc3cccnc3)C(=O)CCCCCCCC[C@@]3(OC)C=C/C(=C(/C(=O)OCc4cccnc4)C(=O)CCCCCCCC1)O3)O2	0.979 µM	1.84 µM	1.7 µM	> 50 µM	1.75 µM	14.7 µM	1.2 µM	3.79 µM	1.02 µM	1.94 µM	1.56 µM	> 50 µM	1.74 µM	> 50 µM	0.915 µM	1.7 µM	2.43 µM	> 50 µM	2.01 µM	20.1 µM
O=c1c2c(c3ccccc3n1-c1ccccc1)NC(=S)NC2c1ccc(Cl)cc1 (configuration not stated)	2.2 µM	16.3 µM	4.69 µM	> 100 µM	4.57 µM	27.2 µM	3.19 µM	16.1 µM	5.36 µM	37.4 µM	10.1 µM	> 100 µM	2.68 µM	> 100 µM	5.34 µM	25.5 µM	9.15 µM	65 µM	5.9 µM	> 100 µM
c1ccc(CN2CCC3(CC2)SSC2(CCN(Cc4ccccc4)CC2)SS3)cc1	–	> 100 µM	–	> 100 µM	–	> 100 µM	–	> 100 µM	–	> 100 µM	–	> 100 µM	–	> 100 µM	–	> 100 µM	–	> 100 µM	–	> 100 µM
Nc1ccccc1NC(=O)c1ccc(CN2CCC/C(=C\c3ccccn3)C2=O)cc1	1.86 µM	20.2 µM	0.443 µM	> 100 µM	1.1 µM	> 100 µM	1.05 µM	> 100 µM	2.62 µM	9.59 µM	1.33 µM	> 100 µM	1.33 µM	> 100 µM	0.755 µM	3.48 µM	1.93 µM	> 100 µM	1.15 µM	14.8 µM
CCC(CCC(C)C1CCC2C3CC=C4CC(OC5OC(CO)C(O)C(O)C5O)CCC4(C)C3CCC12C)C(C)C (configuration not stated)	–	> 100 µM	–	> 100 µM	–	> 100 µM	–	> 100 µM	–	> 100 µM	–	> 100 µM	–	> 100 µM	–	> 100 µM	–	> 100 µM	–	> 100 µM
COc1cccc(-n2cc(-c3nc(Nc4cc(C)[nH]n4)c4ccccc4n3)nn2)c1	5.86 µM	13.3 µM	7.05 µM	14.5 µM	1.69 µM	10.1 µM	1.1 µM	9.51 µM	4.02 µM	10.6 µM	0.234 µM	12.5 µM	3.48 µM	11.9 µM	1.45 µM	8.92 µM	2.34 µM	10.8 µM	7.75 µM	15 µM
Cn1c2ccccc2c(=O)c2c(O)cc3c(c21)CC(C1(C)CO1)O3 (configuration not stated)	–	5.4 µM	–	20 µM	–	26.9 µM	–	2.93 µM	–	32 µM	–	3.2 µM	–	14.2 µM	–	2.85 µM	–	24.1 µM	–	13.1 µM
